Experimental data taken from US20100136034A1, “NOVEL MULTIMERIC MOLECULES, A PROCESS FOR PREPARING THE SAME AND THE USE THEREOF FOR MANUFACTURING MEDICINAL DRUGS” (CENTRE NATIONAL DE LA RECHERCHE SCIENTIFIQUE, priority 2007, published 2010).
Non-standard residues stand in square brackets, D forms with d. No end group written: not given here. Ahx = NCCCCCC(=O)O

Assays:
[1] = system: Burkitt's lymphoma RAJI cells; assay: Induction of apoptosis in Burkitt's lymphoma RAJI cells (drop in mitochondrial transmembrane potential, DiOC6(3), flow cytometry); format: cell-based; details: 16 hours incubation with CD40L analog, FIG. 5A
Procedure: Burkitt's lymphoma (RAJI) was cultured in RPMI 1640 medium (Cambrex Bioscience, Verviers, Belgium) supplemented with 10% decomplemented foetal calf serum (FBS) and gentamycin (10 μg/ml). For assaying apoptosis, cells (1×10^6/ml) were incubated at 37° C. in 96-well plates, at the specified concentrations of CD40L analogs, in a final volume of 200 μl. After incubation for 16 hours, cell apoptosis was measured as described herein below.
To this end, cells were pulsed with DiOC6(3) (Interchim, Montluçon, France)) at a final concentration of 40 nM for the last 45 minutes of culturing.
Cells were subsequently washed, resuspended in 300 μl of PBS and analyzed by flow cytometry. Results (FIG. 5A) are expressed in percentage of specific apoptosis according the following formula: % of specific apoptosis=[(% of dead treated cells−% of dead control cells)×100]/(100−% de dead control cells).
Cells were analyzed by a FACSCalibur® instrument. At least 25000 pulse is events were acquired for each experiment using the CellQuest 3.3 software (Becton Dickinson, Pont de Claix, France) and data were analyzed using the WinMDI 2.8 software (Joseph Trotter, Scripps Research Institute, http://facs.scripps.edu/software.html).

murine spleen B cells = assay: Spleen B cell proliferation ([3H]-thymidine uptake); format: cell-based, BALB/c mice; details: ligand alone, without anti-CD40 antibody 3/23; 72 hours; FIG. 5B
Procedure: Spleens were surgically removed from BALB/c mice aged from 5 to 12 weeks. Spleen B cells were prepared by positive selection using magnetic beads coated with monoclonal anti-CD19 antibodies (MACS, Milteny biotech, Germany). This fraction contains over 95% of B220^+ cells. B cells (3×10^6/ml) were next cultured in RPMI 1640 medium supplemented with 10% complement depleted FBS, gentamycin (10 μg/ml), 25 mM HEPES and […] β-mercaptoethanol in presence of CD40L analogs. Cells were pulsed with 1 μCi/well of tritiated thymidine (ICN, Irvine, Calif.) for the last 20 hours of culturing and the uptake of [^3H]-thymidine as expressed in cpm was measured after 72 hours using a Matrix 9600 model direct 13 counter (Packard, Meriden, Conn.). Results (FIG. 5B) are expressed as a stimulation index corresponding to cpm obtained for cultures with CD40L analogs divided by cpm obtained for cultures without CD40L analogs. Mice used in this study were raised in our animal housing facilities which are licensed by the french veterinary administration under number D-67-482-2.

## L41: dimeric ligand by click chemistry: dimerized macrocycle IV.25 coupled to pentapeptide P1 (Lys-Gly-Tyr-Tyr-Ahx), deprotected (peptide KGYY[Ahx]; chain AKKKAK; also: dimerized macrocycle IV.25 (cyclised hexapeptide) joined by click chemistry (triazole) to pentapeptide P1 (Lys-Gly-Tyr-Tyr-Ahx), D-residues and non-natural residues not placed)
[1]
  percentage of specific apoptosis: induces a Burkitt lymphoma (RAJI) specific apoptosis percentage
Murine spleen B cells
  B cell proliferation (stimulation index, [3H]-thymidine uptake): induces alone murine spleen B cell proliferation
